Drawing on ChEMBL document CHEMBL4145550, “Synthesis of N-(1-(6-acetamido-5-phenylpyrimidin-4-yl) piperidin-3-yl) amide derivatives as potential inhibitors for mitotic kinesin spindle protein” (Eur J Med Chem, 2018), this text covers IC50 for four molecules.

Experiment [1] has as its target T1, Kinesin-like protein KIF11 (Homo sapiens, UniProt P52732).
T1 sequence (P52732 whole entry): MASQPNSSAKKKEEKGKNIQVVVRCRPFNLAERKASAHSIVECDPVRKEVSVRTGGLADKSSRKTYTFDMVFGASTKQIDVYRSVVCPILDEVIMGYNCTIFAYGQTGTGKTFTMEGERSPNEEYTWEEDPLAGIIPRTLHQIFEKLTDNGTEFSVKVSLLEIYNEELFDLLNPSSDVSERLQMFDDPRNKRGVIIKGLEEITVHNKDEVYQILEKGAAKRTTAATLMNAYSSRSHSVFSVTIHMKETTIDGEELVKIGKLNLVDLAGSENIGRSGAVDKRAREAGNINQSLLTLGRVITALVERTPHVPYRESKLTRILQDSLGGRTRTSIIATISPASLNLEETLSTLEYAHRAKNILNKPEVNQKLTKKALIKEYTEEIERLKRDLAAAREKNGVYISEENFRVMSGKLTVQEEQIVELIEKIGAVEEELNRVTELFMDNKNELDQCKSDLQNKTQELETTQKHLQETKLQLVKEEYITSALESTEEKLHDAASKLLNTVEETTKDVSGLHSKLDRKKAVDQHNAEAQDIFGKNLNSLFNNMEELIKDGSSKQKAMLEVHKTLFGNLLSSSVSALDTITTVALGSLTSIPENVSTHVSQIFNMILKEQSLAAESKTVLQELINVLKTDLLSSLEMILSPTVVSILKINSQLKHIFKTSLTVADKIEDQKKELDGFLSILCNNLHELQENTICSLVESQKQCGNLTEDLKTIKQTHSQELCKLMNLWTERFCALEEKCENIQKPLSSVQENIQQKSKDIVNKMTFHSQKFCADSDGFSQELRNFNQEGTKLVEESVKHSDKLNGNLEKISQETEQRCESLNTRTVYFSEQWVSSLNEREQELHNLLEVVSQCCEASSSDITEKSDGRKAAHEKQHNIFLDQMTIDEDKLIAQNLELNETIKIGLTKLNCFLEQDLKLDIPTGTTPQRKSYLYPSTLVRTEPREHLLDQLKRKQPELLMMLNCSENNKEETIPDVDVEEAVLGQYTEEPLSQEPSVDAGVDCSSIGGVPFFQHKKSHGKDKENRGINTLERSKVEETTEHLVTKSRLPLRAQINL
The experiment can be described thus: Inhibition of mitotic kinesin Eg5 (unknown origin).

Experiment [2] deals with T1, Kinesin-like protein KIF11. Briefly: Inhibition of human mitotic kinesin Eg5 motor domain (1 to 368 residues) assessed as reduction in steady-state basal ATPase activity using ATP as substrate by pyruvate kinase/lactate dehydrogenase enzyme coupled assay.

By IC50 is commonly meant the concentration that inhibits the measured activity by half. Regarding `COc1ccc(Nc2nc3cc(C(=O)O)ccc3n2Cc2ccccc2C(F)(F)F)cc1F`, in experiment [1], the IC50 was 0.459 µM.

Regarding `CC(=O)Nc1ncnc(N2CCCC(NC(=O)c3cccc(C(F)(F)F)c3)C2)c1-c1ccccc1` (centres undefined), the IC50 in experiment [2] was 4.86 µM.

Regarding `CC(=O)Nc1ncnc(N2CCCC(NC(=O)COc3cccc(Cl)c3)C2)c1-c1ccccc1` (centres undefined), the IC50 in experiment [2] was determined as 9.03 µM.

For the molecule `CC(=O)Nc1ncnc(N2CCCC(NC(=O)Cc3cccc(F)c3)C2)c1-c1ccccc1` (centres undefined), the IC50 in experiment [2] amounted to 11.4 µM.
